The values below come from paper PMC8776228 (International Journal of Molecular Sciences, 2022).

Values after ≈ are worked out from the molar mass of the structure shown. Read-outs that look alike come from different tables or passages of the source.

In assay [1] the test system is M. tuberculosis NTB1 (DprE1 C387S). The assay is classed as cell-based, Mycobacterium tuberculosis.
For assay [2], the system named is M. tuberculosis NTB9 (DprE1 C387G). The assay is classed as cell-based, Mycobacterium tuberculosis.
The subject of assay [3] is M. tuberculosis H37Rv-pSODIT:dprE1. In words: microbe, parasite or virus in culture. The assay is classed as cell-based, Mycobacterium tuberculosis.
Assay [4] deals with M. tuberculosis 53.3 (Rv2466c, W28S). The assay is classed as cell-based, Mycobacterium tuberculosis.
The subject of assay [5] is M. tuberculosis Ty1 (Rv3405c, c190t). The assay is classed as cell-based, Mycobacterium tuberculosis.
For assay [6], the system named is M. tuberculosis 88.1 (coaA, Q207R). The assay is classed as cell-based, Mycobacterium tuberculosis.
For assay [7], the system named is M. tuberculosis 53.8 (Rv0579, L240V). The assay is classed as cell-based, Mycobacterium tuberculosis.
The subject of assay [8] is M. tuberculosis IC2. In words: microbe, parasite or virus in culture. Conditions: Mycobacterium tuberculosis. The assay is classed as cell-based.
Assay [9] deals with M. tuberculosis IC1. In words: microbe, parasite or virus in culture. The assay is classed as cell-based. Conditions: Mycobacterium tuberculosis.
For assay [10], the system named is M. tuberculosis DR1 (mmpL3, V681I). The assay is classed as cell-based, Mycobacterium tuberculosis.
The subject of assay [11] is M. tuberculosis 88.7 (pyrG, V186G). The assay is classed as cell-based, Mycobacterium tuberculosis.
Assay [12] has as its system M. tuberculosis 81.10 (ethA, D1109-37). The assay is classed as cell-based, Mycobacterium tuberculosis.

`C[C@H]1COC2(CCN(c3nc(=O)c4cc(C(F)(F)F)cc([N+](=O)[O-])c4s3)CC2)O1` [BTZ043]: the “MIC BTZ043” value is more than 1 µg/mL in [1] and 1 µg/mL (≈ 2.32 µM) in assay [2]. The MIC in assay [3] (Mycobacterium tuberculosis, H37RV, read-out: MIC BTZ043) came to 1 µg/mL (≈ 2.32 µM).

Regarding `NNC(=O)c1ccncc1` [INH, isoniazid], the “MIC INH” value in assay [4], in [5], in assay [6], in assay [7], in assay [1] and in assay [2] was 0.025 µg/mL (≈ 0.182 µM) in each case. Moreover, the “MIC INH” value in assay [10], in assay [11] and in assay [12] was 0.025 µg/mL (≈ 0.182 µM) throughout. Besides, the MIC in assay [8] (IC2, read-out: MIC INH) is more than 0.2 µg/mL; in [9] (IC1, read-out: MIC INH) it was more than 0.2 µg/mL.

As for `CO[C@H]1C[C@H](O[C@@H]2/C(C)=C/C[C@@H]3C[C@@H](C[C@]4(CC[C@H](C)[C@@H](C5CCCCC5)O4)O3)OC(=O)[C@@H]3C=C(C)/C(=N/O)[C@H]4OC/C(=C\C=C\[C@@H]2C)[C@]43O)O[C@@H](C)[C@@H]1O` [Selamectin], the “MIC SEL” value in assay [4] was 2 to 4 µg/mL; in [5], 2 to 4 µg/mL; in [6], 2 to 4 µg/mL; in [7], 2 to 4 µg/mL; in assay [1] it was 2 µg/mL (≈ 2.6 µM); in assay [2], 2 µg/mL (≈ 2.6 µM). Also, the “MIC SEL” value in assay [10] was 2 to 4 µg/mL; in [11] it was 2 to 4 µg/mL; in [12], 4 to 8 µg/mL. Further, the “change in sensitivity compared to H37Rv (MIC)” value in [1] and in [2] was “two-fold increase in sensitivity” throughout. Besides, the MIC in assay [8] (IC2, read-out: MIC SEL) lay in the range of 4 to 8 µg/mL (≈ 5.19 to 10.4 µM); in assay [9] (IC1, read-out: MIC SEL), 4 to 8 µg/mL (≈ 5.19 to 10.4 µM). Moreover, the “change in susceptibility upon overexpression of dprE1 (MIC)” value in assay [3] is on record as “did not confer changes in the susceptibility”.
